# Measured values taken from patent publication US12350262B2, “Methods of treatment for cystic fibrosis” (Vertex Pharmaceuticals Incorporated, priority 2017, dated 2025).
# Experiments:
# [1] = target: T1, F508del CFTR in NIH3T3 cells (Homo sapiens, UniProt P13569, DEL508-508); assay: Membrane potential optical assay (correction assay); type: cell-based
# T1 construct: expressed in transfected cells
# Source text: An optical assay was employed to measure changes in membrane potential to determine the CFTR modulator properties of compounds. The assay utilized fluorescent voltage sensing dyes to measure changes in membrane potential using a fluorescent plate reader (e.g., FLIPR III, Molecular Devices, Inc.) as a readout for increase in functional F508del in NIH 3T3 cells. The driving force for the response was the creation of a chloride ion gradient in conjunction with channel activation and concurrent with compound treatment by a single liquid addition step after the cells had previously been loaded with a voltage sensing dye.
# NIH3T3 mouse fibroblasts stably expressing F508del were used for optical measurements of membrane potential. The cells were maintained at 37° C. in 5% CO2 and 90% humidity in Dulbecco's modified Eagle's medium supplemented with 2 mM glutamine, 10% fetal bovine serum, 1×NEAA, P-ME, 1× pen/strep, and 25 mM HEPES in 175 cm^2 culture flasks. For all optical assays, the cells were seeded at 12,000 cells/well in 384-well matrigel-coated plates. […] The cells were then activated and treated with Compound I. After 18-24 hours, fluorescence from the voltage sensing dye in the cells was measured to assess changes in the membrane potential as a read out for increase in functional F508del CFTR in the NIH3T3 cells.
# [2] = target: T2, F508del-CFTR in human bronchial epithelial (HBE) cells (Homo sapiens, UniProt P13569, DEL508-508); assay: Ussing chamber assay; type: cell-based; settings: chloride current
# T2 construct: Non-CF and CF airway epithelia were isolated from bronchial tissue; endogenous in cells; host or cells: primary CF human bronchial epithelial (HBE) cells
# T2 sequence (P13569 with tags, fused parts or gaps DEL508-508): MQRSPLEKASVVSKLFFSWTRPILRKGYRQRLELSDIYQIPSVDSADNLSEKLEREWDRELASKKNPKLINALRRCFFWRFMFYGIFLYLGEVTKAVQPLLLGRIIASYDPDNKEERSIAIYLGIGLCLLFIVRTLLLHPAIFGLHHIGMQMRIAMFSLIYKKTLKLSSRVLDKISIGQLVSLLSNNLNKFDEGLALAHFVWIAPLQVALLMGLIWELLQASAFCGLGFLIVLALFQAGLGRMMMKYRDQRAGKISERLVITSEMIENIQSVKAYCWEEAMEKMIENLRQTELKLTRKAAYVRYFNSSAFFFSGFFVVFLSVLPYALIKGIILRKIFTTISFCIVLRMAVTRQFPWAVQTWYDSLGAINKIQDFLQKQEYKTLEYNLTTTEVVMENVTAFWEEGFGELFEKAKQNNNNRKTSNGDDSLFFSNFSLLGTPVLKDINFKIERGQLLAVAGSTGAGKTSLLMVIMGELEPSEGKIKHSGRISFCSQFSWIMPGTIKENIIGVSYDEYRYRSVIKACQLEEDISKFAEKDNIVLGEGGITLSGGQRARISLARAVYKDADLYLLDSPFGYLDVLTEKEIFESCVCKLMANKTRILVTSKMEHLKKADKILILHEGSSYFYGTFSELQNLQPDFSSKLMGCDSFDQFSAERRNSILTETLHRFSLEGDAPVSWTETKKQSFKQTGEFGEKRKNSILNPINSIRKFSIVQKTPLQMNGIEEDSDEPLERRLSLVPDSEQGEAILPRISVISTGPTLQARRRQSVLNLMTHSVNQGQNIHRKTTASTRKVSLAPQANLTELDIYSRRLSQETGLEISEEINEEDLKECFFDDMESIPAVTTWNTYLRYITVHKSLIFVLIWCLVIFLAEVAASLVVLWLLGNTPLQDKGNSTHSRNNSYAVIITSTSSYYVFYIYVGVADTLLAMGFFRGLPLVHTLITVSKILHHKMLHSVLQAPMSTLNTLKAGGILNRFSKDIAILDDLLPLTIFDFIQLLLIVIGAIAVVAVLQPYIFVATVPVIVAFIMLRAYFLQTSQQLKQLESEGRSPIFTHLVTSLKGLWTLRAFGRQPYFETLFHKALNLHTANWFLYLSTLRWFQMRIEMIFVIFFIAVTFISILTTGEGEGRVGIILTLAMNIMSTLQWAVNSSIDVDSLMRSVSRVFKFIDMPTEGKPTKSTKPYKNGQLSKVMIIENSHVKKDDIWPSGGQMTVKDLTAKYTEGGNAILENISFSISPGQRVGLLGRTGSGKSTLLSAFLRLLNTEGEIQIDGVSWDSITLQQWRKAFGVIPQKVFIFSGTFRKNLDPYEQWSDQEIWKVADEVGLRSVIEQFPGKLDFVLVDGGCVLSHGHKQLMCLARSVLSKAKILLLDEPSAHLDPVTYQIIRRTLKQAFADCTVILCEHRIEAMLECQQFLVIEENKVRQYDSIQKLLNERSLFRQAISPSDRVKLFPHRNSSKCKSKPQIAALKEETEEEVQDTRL
# Procedure: Ussing chamber experiments were performed on polarized airway epithelial cells expressing F508del to further characterize the F508del modulators identified in the optical assay above. Non-CF and CF airway epithelia were isolated from bronchial tissue, cultured using methods well known in the art, and plated onto Costar® Snapwell™ filters that were precoated with NIH3T3-conditioned media. After four days the apical media was removed and the cells were grown at an air liquid interface for >14 days prior to use. […] CF-HBE cells were isolated from patients homozygous for F508del (F508del/F508del-HBE) or heterozygous for F508del with a different disease causing mutation on the other allele.
# HBE cells grown on Costar® Snapwell™ cell culture inserts were mounted in an Ussing chamber (Physiologic Instruments, Inc., San Diego, CA), and the transepithelial resistance and short-circuit current in the presence of a basolateral to apical Cl^− gradient (ISC) were measured using a voltage-clamp system (Department of Bioengineering, University of Iowa, IA). Briefly, HBE cells were examined under voltage-clamp recording conditions (Vhold=0 mV) at 37° C. […]
# A basolateral to apical membrane Cl^− concentration gradient was set up as follows. […] Chloride current was measured to assess the increase in functional CFTR in the cell membrane.
# [3] = Rat pharmacokinetics, single IV and PO dose; type: in vivo, male Sprague Dawley rats; settings: single nominal oral dose 3 mg/kg
# Procedure: Compound 1 was also administered to male Sprague Dawley rats at single nominal oral dose (PO) of 3 mg/kg as a solution in 5% NMP, 30% PEG400, 10% TPGS, 5% PVP-K30 at 5 mL/kg dose volume.
# The study design, sample tracking, data run design and individual plasma sample concentrations were stored using Watson LIMS software, Version 7.4.2 (Thermo Scientific Inc, Waltham, MA). Plasma concentration-time profiles of Compound 1 in Sprague Dawley rats at scheduled (nominal) sampling times were analyzed by noncompartmental pharmacokinetic methods using PK function within Watson LIMS software, Version 7.4.2 (Thermo Scientific Inc, Waltham, MA). Key pharmacokinetic parameters such as “area under the curve” (AUC), from the time of drug administration, time zero, extrapolated to infinity, clearance (CL), and Percent of oral bioavailability (% F) were determined. The AUC values were calculated using the linear trapezoidal rule.
# healthy subjects = assay: Safety and Efficacy Study 1, Part 1 with healthy subjects; type: in vivo, human; settings: interim data
# T1 sequence (P13569 with tags, fused parts or gaps DEL508-508): as above
compound,measurement,setting,value
"Cc1nn(C)cc1S(=O)(=O)NC(=O)c1ccc(-n2ccc(OCC(C)(C)C(F)(F)F)n2)nc1N1C[C@@H](C)CC1(C)C [Compound I, N-(1,3-dimethylpyrazol-4-yl)sulfonyl-6-[3-(3,3,3-trifluoro-2,2-dimethyl-propoxy)pyrazol-1-yl]-2-[(4S)-2,2,4-trimethylpyrrolidin-1-yl]pyridine-3-carboxamide]",Emax,"[1]; NIH3T3, relative to Compound II, read-out: % Efficacy",≥ 100%
same,EC50,"[1]; NIH3T3 cells expressing F508del, 18-24 hours treatment",< 3000 nM
same,EC50,[2],< 2000 nM
same,HBE Max Eff,[2],+++ (means >100%)
same,Rat PO AUC/dose,[3],9.4 ± 0.7 µg·h/mL/mg/kg
same,safety and tolerability,healthy subjects; multiple doses up to 340 mg for 10 days,safe and well tolerated
same,safety and tolerability,healthy subjects; single doses up to 360 mg,safe and well tolerated
